The test system of data set [1] is corneas. Briefly: Staining of corneas for 15 minutes and fluorescence microscopy imaging after storage of the stain. The class given is cell-based. How it is done: Calcein AM (2.5 μg/mL) was prepared with 1.7% sodium hyaluronic acid in a balanced salt solution. Three corneas were stained for 15 minutes and imaged under the same conditions. The cornea shown in FIG. 1A was stained with the mixture immediately after preparation. The cornea shown in FIG. 1B was stained with the mixture after the mixture had been stored frozen for 5 days. The cornea shown in FIG. 1C was stained with the mixture after the mixture had been stored frozen for 3 months.
Calcein-AM (2.5 μg/mL) was prepared according to manufacturer's recommendations. All corneas were stained for 15 minutes and imaged under the same conditions.

For data set [2] the following is noted: stored over night at 4° C., or frozen and thawed; cited from earlier work.
For data set [3] the following is noted: in water and alcohol; cited from earlier work.

Consider calcein AM, for which, in data set [1] (stored under 4° C. refrigeration, protected from light, overnight, five days, one month, three months, FIGS. 2B-2E), the “fluorescence signal with storage time” value is recorded as “loses intensity with the storage time length”. Moreover, in data set [1] (three months' storage under 4° C. refrigeration, FIG. 2E), the “fluorescence signal after storage” value is recorded as “completely lost”. The functionality after storage entry in data set [2] is “lose functionality”. Besides, the solubility result in data set [3] is “only slightly soluble”.

Source of the values: US20230071672A1, “PRESERVING FLUOROPHORE FUNCTION” (Lions VisionGift, priority 2021, published 2023).
